In US8148391B2 (Cephalon, Inc., priority 2006, dated 2012) one finds IC50 data, which are given here for 23 compounds.

For experiment [1], the target named is T1, baculovirus-expressed ALK (Homo sapiens, UniProt Q9UM73).
T1 construct: host or cells: baculovirus expression system
Description: ALK Kinase Assay (ELISA-type, time-resolved fluorescence). The note with it: 1 μM ATP (Km level), 30 ng/ml ALK, 37° C., 15 minutes; read-out: ALK Activity (ALK kinase inhibition, IC50 class). The experiment is classed as biochemical. In a few lines: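 Wells were coated with phospholipase C-γ at 10 μg/mL in Tris-buffered saline. Adding 30 ng/ml enzyme started the reaction, which ran at 37° C for 15 minutes before Eu-N1 PT66 antibody detection. Percent inhibition versus log10 concentration gave IC50 by variable-slope fit.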
For orientation: In an ELISA, binding on a coated surface is turned into a signal by an enzyme label.

Experiment [2] addresses T2, c-Met (cytoplasmic domain) (Homo sapiens, UniProt P08581).
T2 construct: 10 ng/mL c-Met (cytoplasmic domain, Invitrogen Corporation #PV3143); purchased Invitrogen Corporation PV3143
Description: c-Met Kinase Assay (same methods as for ALK, with modifications). It counts as biochemical. Particulars: 1 μM ATP (Km level), 10 ng/mL c-Met; read-out: cMet Activity (c-Met kinase inhibition, IC50 class). The procedure, abridged: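 IC50 values were fitted by variable-slope sigmoidal regression of percent inhibition against log compound concentration. Phosphorylation was read with Eu-N1 PT66 antibody after a 15 min, 37 °C reaction. The reaction was initiated with 10 ng/mL c-Met cytoplasmic domain on wells coated with 10 μg/mL PLC-γ in TBS.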

SMILES strings stand for the structures. A value given as a limit tells only on which side of the number the result lay.

T1 sequence (Q9UM73 19-1620): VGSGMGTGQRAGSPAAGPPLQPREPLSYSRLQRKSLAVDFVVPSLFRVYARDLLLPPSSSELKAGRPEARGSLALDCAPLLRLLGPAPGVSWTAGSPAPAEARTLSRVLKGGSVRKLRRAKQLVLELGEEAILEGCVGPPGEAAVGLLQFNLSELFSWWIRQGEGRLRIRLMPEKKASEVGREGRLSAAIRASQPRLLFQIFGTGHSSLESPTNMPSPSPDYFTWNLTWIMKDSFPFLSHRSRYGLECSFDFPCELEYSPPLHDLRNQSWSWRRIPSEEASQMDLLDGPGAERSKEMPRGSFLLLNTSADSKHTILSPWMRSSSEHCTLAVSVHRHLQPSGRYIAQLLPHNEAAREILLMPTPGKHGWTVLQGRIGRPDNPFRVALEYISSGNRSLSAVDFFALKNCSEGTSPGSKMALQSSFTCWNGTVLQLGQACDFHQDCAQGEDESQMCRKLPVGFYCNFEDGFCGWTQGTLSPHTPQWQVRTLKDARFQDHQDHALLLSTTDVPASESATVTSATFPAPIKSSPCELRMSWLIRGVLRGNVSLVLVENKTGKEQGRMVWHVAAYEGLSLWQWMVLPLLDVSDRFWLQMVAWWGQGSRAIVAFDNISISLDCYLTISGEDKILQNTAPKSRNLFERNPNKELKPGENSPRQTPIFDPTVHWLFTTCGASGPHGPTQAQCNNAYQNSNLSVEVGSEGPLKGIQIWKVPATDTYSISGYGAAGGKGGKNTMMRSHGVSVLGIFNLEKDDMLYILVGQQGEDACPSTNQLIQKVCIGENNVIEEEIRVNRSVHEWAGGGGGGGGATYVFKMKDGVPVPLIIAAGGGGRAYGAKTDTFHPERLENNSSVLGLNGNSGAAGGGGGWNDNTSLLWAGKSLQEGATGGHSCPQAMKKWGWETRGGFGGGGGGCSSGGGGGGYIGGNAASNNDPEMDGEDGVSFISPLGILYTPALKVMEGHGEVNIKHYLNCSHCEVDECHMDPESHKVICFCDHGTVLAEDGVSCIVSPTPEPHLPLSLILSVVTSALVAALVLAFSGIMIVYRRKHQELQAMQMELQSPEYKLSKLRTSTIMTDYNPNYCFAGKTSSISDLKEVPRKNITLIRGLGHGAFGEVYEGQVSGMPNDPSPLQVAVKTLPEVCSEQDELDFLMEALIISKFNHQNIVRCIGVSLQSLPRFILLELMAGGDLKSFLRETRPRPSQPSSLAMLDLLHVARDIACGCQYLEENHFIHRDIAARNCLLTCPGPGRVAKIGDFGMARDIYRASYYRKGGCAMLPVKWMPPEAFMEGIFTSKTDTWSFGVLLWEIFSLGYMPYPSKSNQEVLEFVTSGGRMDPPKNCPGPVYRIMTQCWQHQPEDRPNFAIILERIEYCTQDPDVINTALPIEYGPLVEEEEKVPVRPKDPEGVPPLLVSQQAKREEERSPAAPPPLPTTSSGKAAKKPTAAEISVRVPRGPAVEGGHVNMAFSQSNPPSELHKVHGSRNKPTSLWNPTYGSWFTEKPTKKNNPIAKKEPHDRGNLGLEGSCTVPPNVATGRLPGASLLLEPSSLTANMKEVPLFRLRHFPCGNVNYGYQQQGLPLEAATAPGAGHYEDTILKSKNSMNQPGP
T2 sequence (P08581 956-1390 limits assumed): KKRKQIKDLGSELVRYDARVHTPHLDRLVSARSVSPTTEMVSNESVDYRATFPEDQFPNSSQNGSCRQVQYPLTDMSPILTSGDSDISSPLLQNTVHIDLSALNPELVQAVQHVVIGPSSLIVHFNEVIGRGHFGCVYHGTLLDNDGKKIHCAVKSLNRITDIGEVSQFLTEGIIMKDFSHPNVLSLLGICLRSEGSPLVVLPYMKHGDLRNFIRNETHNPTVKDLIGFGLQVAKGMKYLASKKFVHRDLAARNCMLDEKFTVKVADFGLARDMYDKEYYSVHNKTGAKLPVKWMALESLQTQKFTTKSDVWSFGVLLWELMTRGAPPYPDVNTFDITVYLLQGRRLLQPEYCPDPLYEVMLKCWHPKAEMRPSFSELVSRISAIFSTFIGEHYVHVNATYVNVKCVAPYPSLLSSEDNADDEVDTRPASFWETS

For `COCCN1CCc2ccc(Nc3ncc(Cl)c(N[C@H]4CC[C@H](NS(C)(=O)=O)CC4)n3)cc2CC1` [Example 1378, trans-N-(4-{5-Chloro-2-[3-(2-methoxy-ethyl)-2,3,4,5-tetrahydro-1H-benzo[d]azepin-7-ylamino]-pyrimidin-4-ylamino}-cyclohexyl)-methanesulfonamide], the 50% inhibitory concentration (IC50) (usually the midpoint of a concentration-inhibition curve) in experiment [1] was 100 to 1000 nM; in experiment [2], greater than 10000 nM.

On to `COCCN1CCc2ccc(Nc3ncc(Cl)c(N[C@H]4CC[C@@H](NS(C)(=O)=O)CC4)n3)cc2CC1` [Example 1381, cis-N-(4-{5-Chloro-2-[3-(2-methoxy-ethyl)-2,3,4,5-tetrahydro-1H-benzo[d]azepin-7-ylamino]-pyrimidin-4-ylamino}-cyclohexyl)-methanesulfonamide], for which the IC50 in experiment [1] lay in the range of 100 to 1000 nM; in experiment [2] it was 1000 to 10000 nM.

For the compound `COCCN1CCc2ccc(Nc3ncc(Cl)c(N[C@@H]4CCCC[C@H]4N(CC#N)S(C)(=O)=O)n3)cc2CC1` [Example 1383, N-((1R,2R)-2-{5-Chloro-2-[3-(2-methoxy-ethyl)-2,3,4,5-tetrahydro-1H-benzo[d]azepin-7-ylamino]-pyrimidin-4-ylamino}-cyclohexyl)-N-cyanomethyl-methanesulfonamide], the values for the half-inhibitory concentration (IC50) in experiment [1] and in experiment [2] were 100 to 1000 nM and 1000 to 10000 nM, respectively.

Consider `COCCN1CCc2ccc(Nc3ncc(Cl)c(N[C@H]4CC[C@@H](N(CC#N)S(C)(=O)=O)CC4)n3)cc2CC1` [Example 1384, cis-N-(4-{5-Chloro-2-[3-(2-methoxy-ethyl)-2,3,4,5-tetrahydro-1H-benzo[d]azepin-7-ylamino]-pyrimidin-4-ylamino}-cyclohexyl)-N-cyanomethyl-methanesulfonamide], for which the IC50 in experiment [1] lay in the range of 100 to 1000 nM; in experiment [2], 1000 to 10000 nM.

Take `COCCN1CCc2ccc(Nc3ncc(Cl)c(N[C@H]4CC[C@H](N(CC#N)S(C)(=O)=O)CC4)n3)cc2CC1` [Example 1385, trans-N-(4-{5-Chloro-2-[3-(2-methoxy-ethyl)-2,3,4,5-tetrahydro-1H-benzo[d]azepin-7-ylamino]-pyrimidin-4-ylamino}-cyclohexyl)-N-cyanomethyl-methanesulfonamide]: the IC50 in experiment [1] is 100 to 1000 nM; in experiment [2], 1000 to 10000 nM.

As to `C#CCNC(=O)c1ccccc1Nc1nc(Nc2ccc3c(c2)CCN(CCOC)CC3)ncc1Cl` [Example 1387, 2-{5-Chloro-2-[3-(2-methoxy-ethyl)-2,3,4,5-tetrahydro-1H-benzo[d]azepin-7-ylamino]-pyrimidin-4-ylamino}-N-prop-2-ynyl-benzamide], the IC50 in experiment [1] and in experiment [2] was less than 100 nM each time.

For the compound `C#CCN(C)C(=O)c1ccccc1Nc1nc(Nc2ccc3c(c2)CCN(CCOC)CC3)ncc1Cl` [Example 1389, {5-Chloro-2-[3-(2-methoxy-ethyl)-2,3,4,5-tetrahydro-1H-benzo[d]azepin-7-ylamino]-pyrimidin-4-ylamino}-N-methyl-N-prop-2-ynyl-benzamide], the figures for the IC50 in experiment [1] and in experiment [2] were less than 100 nM and 100 to 1000 nM, respectively.

For `COc1cc2c(cc1Nc1ncc(Cl)c(Nc3ccc(N4CCOCC4)cc3OC)n1)CCN(C(CF)CF)CC2` [Example 1391, Chloro-N(2)-[3-(2-fluoro-1-fluoromethyl-ethyl)-8-methoxy-2,3,4,5-tetrahydro-1H-benzo[d]azepin-7-yl]-N(4)-(2-methoxy-4-morpholin-4-yl-phenyl)-pyrimidine-2,4-diamine], the results for the half-maximal inhibitory concentration (IC50) in experiment [1] and in experiment [2] were less than 100 nM and greater than 10000 nM, respectively.

With `COc1cc2c(cc1Nc1ncc(Cl)c(N[C@@H]3CCCC[C@H]3NS(C)(=O)=O)n1)CCN(C(CF)CF)CC2` [Example 1392, ((1R,2R)-2-{5-Chloro-2-[3-(2-fluoro-1-fluoromethyl-ethyl)-8-methoxy-2,3,4,5-tetrahydro-1H-benzo[d]azepin-7-ylamino]-pyrimidin-4-ylamino}-cyclohexyl)-methanesulfonamide], the values for the IC50 in experiment [1] and in experiment [2] were less than 100 nM and greater than 10000 nM, respectively.

Take `COc1cc2c(cc1Nc1ncc(Cl)c(Nc3ccccc3S(=O)(=O)N(C)C)n1)CCN(C(CF)CF)CC2` [Example 1393, {5-Chloro-2-[3-(2-fluoro-1-fluoromethyl-ethyl)-8-methoxy-2,3,4,5-tetrahydro-1H-benzo[d]azepin-7-ylamino]-pyrimidin-4-ylamino}-N,N-dimethyl-benzenesulfonamide]: the IC50 in experiment [1] is less than 100 nM; in experiment [2], greater than 10000 nM.

For `COc1cc2c(cc1Nc1ncc(Cl)c(Nc3ccccc3S(=O)(=O)C(C)C)n1)CCN(C(CF)CF)CC2` [Example 1394, Chloro-N(2)-[3-(2-fluoro-1-fluoromethyl-ethyl)-8-methoxy-2,3,4,5-tetrahydro-1H-benzo[d]azepin-7-yl]-N(4)-[2-(propane-2-sulfonyl)-phenyl]-pyrimidine-2,4-diamine], the IC50 in experiment [1] is less than 100 nM; in experiment [2], greater than 10000 nM.

With `CCOC(=O)c1ccccc1Nc1nc(Nc2ccc3c(c2)CCN(CCOC)CC3)ncc1Cl` [Example 1395, {5-Chloro-2-[3-(2-methoxy-ethyl)-2,3,4,5-tetrahydro-1H-benzo[d]azepin-7-ylamino]-pyrimidin-4-ylamino}-benzoic acid ethyl ester], the half-maximal inhibitory concentration (IC50) in experiment [1] was less than 100 nM; in experiment [2] it was 100 to 1000 nM.

Take `COCCN1CCc2ccc(Nc3ncc(Cl)c(Nc4ccccc4C(=O)NCC(C)C)n3)cc2CC1` [Example 1396, {5-Chloro-2-[3-(2-methoxy-ethyl)-2,3,4,5-tetrahydro-1H-benzo[d]azepin-7-ylamino]-pyrimidin-4-ylamino}-N-isobutyl-benzamide]: the concentration for half-maximal inhibition (IC50) in experiment [1] was less than 100 nM; in experiment [2], 100 to 1000 nM.

Regarding `COCCN1CCc2ccc(Nc3ncc(Cl)c(Nc4ccccc4C(=O)NCCN(C)C)n3)cc2CC1` [Example 1397, {5-Chloro-2-[3-(2-methoxy-ethyl)-2,3,4,5-tetrahydro-1H-benzo[d]azepin-7-ylamino]-pyrimidin-4-ylamino}-N-(2-dimethylamino-ethyl)-benzamide], the IC50 in experiment [1] and in experiment [2] was 100 to 1000 nM in each case.

On to `COCCNC(=O)c1ccccc1Nc1nc(Nc2ccc3c(c2)CCN(CCOC)CC3)ncc1Cl` [Example 1398, {5-Chloro-2-[3-(2-methoxy-ethyl)-2,3,4,5-tetrahydro-1H-benzo[d]azepin-7-ylamino]-pyrimidin-4-ylamino}-N-(2-methoxy-ethyl)-benzamide], for which the half-inhibitory concentration (IC50) is less than 100 nM in experiment [1] and 1000 to 10000 nM in experiment [2].

For `COCCCNC(=O)c1ccccc1Nc1nc(Nc2ccc3c(c2)CCN(CCOC)CC3)ncc1Cl` [Example 1399, {5-Chloro-2-[3-(2-methoxy-ethyl)-2,3,4,5-tetrahydro-1H-benzo[d]azepin-7-ylamino]-pyrimidin-4-ylamino}-N-(3-methoxy-propyl)-benzamide], the IC50 is less than 100 nM in experiment [1] and 1000 to 10000 nM in experiment [2].

Turning to `COCCN1CCc2ccc(Nc3ncc(Cl)c(Nc4ccccc4C(=O)NCCCCN(C)C)n3)cc2CC1` [Example 1400, {5-Chloro-2-[3-(2-methoxy-ethyl)-2,3,4,5-tetrahydro-1H-benzo[d]azepin-7-ylamino]-pyrimidin-4-ylamino}-N-(4-dimethylamino-butyl)-benzamide], the IC50 was in the range of 100 to 1000 nM in experiment [1] and 1000 to 10000 nM in experiment [2].

Regarding `COCCN1CCc2ccc(Nc3ncc(Cl)c(Nc4ccccc4C(=O)NCCCN(C)C)n3)cc2CC1` [Example 1401, 2-{5-Chloro-2-[3-(2-methoxy-ethyl)-2,3,4,5-tetrahydro-1H-benzo[d]azepin-7-ylamino]-pyrimidin-4-ylamino}-N-(3-dimethylamino-propyl)-benzamide], the IC50 in experiment [1] and in experiment [2] was 100 to 1000 nM each time.

On to `COCCN1CCc2ccc(Nc3ncc(Cl)c(Nc4ccccc4C(=O)NCCN4CCN(C)CC4)n3)cc2CC1` [Example 1402, 2-{5-Chloro-2-[3-(2-methoxy-ethyl)-2,3,4,5-tetrahydro-1H-benzo[d]azepin-7-ylamino]-pyrimidin-4-ylamino}-N-[2-(4-methyl-piperazin-1-yl)-ethyl]-benzamide], for which the IC50 in experiment [1] lay within 100 to 1000 nM; in experiment [2], 1000 to 10000 nM.

For `C#CCNC(=O)c1cccc(F)c1Nc1nc(Nc2ccc3c(c2)CCN(CCOC)CC3)ncc1Cl` [Example 1403, 2-{5-Chloro-2-[3-(2-methoxy-ethyl)-2,3,4,5-tetrahydro-1H-benzo[d]azepin-7-ylamino]-pyrimidin-4-ylamino}-3-fluoro-N-prop-2-ynyl-benzamide], the IC50 in experiment [1] and in experiment [2] was less than 100 nM throughout.

Consider `C#CCNC(=O)c1cccc(F)c1Nc1nc(Nc2ccc3c(c2)NC(=O)CCC3)ncc1Cl` [Example 1404, 2-[5-Chloro-2-(2-oxo-2,3,4,5-tetrahydro-1H-benzo[b]azepin-8-ylamino)-pyrimidin-4-ylamino]-3-fluoro-N-prop-2-ynyl-benzamide], for which the IC50 in experiment [1] and in experiment [2] was 100 to 1000 nM throughout.

In the case of `C#CCNC(=O)c1cccc(F)c1Nc1nc(Nc2ccc3c(c2)N(CC)C(=O)CCC3(C)C)ncc1Cl` [Example 1405, 2-[5-Chloro-2-(1-ethyl-5,5-dimethyl-2-oxo-2,3,4,5-tetrahydro-1H-benzo[b]azepin-8-ylamino)-pyrimidin-4-ylamino]-3-fluoro-N-prop-2-ynyl-benzamide], the IC50 in experiment [1] is 100 to 1000 nM; in experiment [2], less than 100 nM.

Take `C#CCNC(=O)c1cccc(F)c1Nc1nc(Nc2ccc3c(c2)NC(=O)CCC3(C)C)ncc1Cl` [Example 1406, 2-[5-Chloro-2-(5,5-dimethyl-2-oxo-2,3,4,5-tetrahydro-1H-benzo[b]azepin-8-ylamino)-pyrimidin-4-ylamino]-3-fluoro-N-prop-2-ynyl-benzamide]: the IC50 in experiment [1] was 100 to 1000 nM; in experiment [2], less than 100 nM.
